The values below come from patent publication EP2990415B1, “Cyclic beta defensins analogs for the treatment of infections” (Ceinge Biotecnologie Avanzate S.C. a R.L., priority 2014, dated 2016).

Bridge positions count the residues as written; N and C are the ends. Ends that are not written are not given here. Peptide text beside a SMILES is read from it.

The test system of assay [1] is P. aeruginosa, E. coli and E. faecalis. It is filed as cell-based. As to the method: (§1) A CFU assay of the antibacterial activity of the peptides of the present invention against Pseudomonas aeruginosa ATCC (American Type Culture Collection, Manassas, VA, USA) 27853, Enterococcus faecalis ATCC 29212 and Escherichia coli ATCC 25922 was performed as follows. The strains were grown in aerobic conditions in tryptic soy broth (Difco Laboratories, Detroit, MI, USA) at 37°C and incubated in the presence of hBDs for 2 h at 37°C. We used two concentrations of peptides, i.e., 2.5 µM and 12.5 µM. For salt-dependence assay, 0, 50, 100 and 200 mM NaCl were included in the incubation buffer as previously described (1). Each assay was performed in triplicate. Bactericidal activity (mean and SD of three assays) is expressed as the ratio between colonies counted and the number of colonies on a control plate. The minimal inhibitory concentration (MIC) of the peptide SEQ ID No. 25 was determined with a modified version of the microbroth dilution assay of the National Committee for Clinical Laboratory Standards using a final inoculum of 10^5 CFU/ml. The following peptide concentrations were used: 100.0, 50.0, 25.0, 12.5, 6.25, 3.12 and 1.56 µM.

The subject of assay [2] is HSV-1. In words: Inhibition of HSV infectivity on Vero cell monolayers (co-exposure, virus pre-exposure, cell pre-exposure, post-exposure). It is filed as cell-based. As to the method:
Vero cells were grown in Dulbecco's modified Eagle's medium (DMEM) supplemented with 10% fetal calf serum. HSV-1 carrying a lacZ gene driven by the cytomegalovirus (CMV) IE-1 promoter to express beta-galactosidase was propagated as described elsewhere (Galdiero S, Falanga A, Vitiello M, D'Isanto M, Cantisani M, Kampanaraki A, Benedetti E, Browne H, Galdiero M. Peptides. 2008 Sep;29(9):1461-71). All experiments were conducted in parallel with no-peptide controls. […] Non-penetrated viruses were inactivated by citrate buffer at pH 3.0. Monolayers were fixed, stained with 5-bromo-4-chloro-3-indolyl-beta-D-galactopyranoside (X-gal) and plaque numbers were scored. Experiments were performed in triplicate and the percentage of inhibition was calculated with respect to no-peptide control experiments; ii) For "virus pre-exposure" experiments, […] monolayers; iii) For "cell pre-exposure" experiments, Vero cells were incubated with 20 µM of peptides for 30 min at 4°C and infected with serial dilutions of HSV-1 for 45 min at 37°C; and iv) For "post-exposure" experiments, Vero cell monolayers were incubated with virus for 45 minutes at 37°C and afterwards the peptide was added to the inoculum followed by an additional incubation period of 30 minutes at 37°C.
The antiviral activity was evaluated in co-exposure experiments (with cell, virus, and peptide at zero time), virus pre-exposure experiments (virus plus peptide before cell infection), cell pre-exposure experiments (cell plus peptide before virus infection) and post-treatment (cell plus virus before peptide addition) in order to evaluate in which phase, if any, the peptides could inhibit virus infectivity. […] Both in the co-exposure and virus pre-treatment experiments, the oxidized SEQ. […]

For assay [3], the system named is Pseudomonas aeruginosa ATCC 27853. In kind it is cell-based. The settings on record: 12.5 µM. As to the method:
as §1

Assay [4] concerns Enterococcus faecalis ATCC 29212. It is filed as cell-based. The settings on record: 12.5 µM. As to the method: as §1
Assay [5] has as its system Escherichia coli ATCC 25922. In kind it is cell-based. The settings on record: 12.5 µM. As for the experimental part: as §1
Assay [6] concerns HSV-1. Conditions: reported elsewhere; cited from earlier work.

Regarding `CC[C@H](C)[C@@H]1NC(=O)[C@H](CCCCN)NC(=O)[C@H]([C@@H](C)O)NC(=O)[C@H](Cc2ccccc2)NC(=O)[C@H]([C@@H](C)CC)NC(=O)[C@@H]2CCCN2C(=O)[C@@H](N)CSSC[C@@H](C(=O)NCC(=O)NCC(=O)N[C@@H](CCCNC(=N)N)C(=O)N[C@@H](CCCNC(=N)N)C(=O)N[C@@H](CCCCN)C(=O)N[C@@H](CCCCN)C(N)=O)NC(=O)[C@H]([C@@H](C)O)NC(=O)CNC(=O)[C@H](CCC(N)=O)NC1=O` [SEQ ID No. 25] (H-CPIFTKIQGTCGGRRKK-NH2; disulfide 1-11), the minimum inhibitory concentration (MIC) in assay [1] was in the range of 12.5 to 25.0 µM.

As for “GIINTLQKYYCRVRGGRCAVLSCLPKEEQIGKCSTRGRKCCRRKK (disulfide 11-40, 18-33, 23-41 (inferred)) [hBD3]”, the Peptide inhibition in assay [2] (Cell Pre-treatment at 4°C, 1 uM) came to 53.5; in assay [2] (Cell Pre-treatment at 4°C, 5 uM) it was 41; in assay [2] (Cell Pre-treatment at 4°C, 10 uM), 27; in assay [2] (Cell Pre-treatment at 4°C, 20 uM), 22; in assay [2] (Cell Pre-treatment at 4°C, 50 uM) it was 18; in assay [2] (Cell Pre-treatment at 4°C, 150 uM) it was 1. For the same compound, the Peptide inhibition in assay [2] (Cell Pre-treatment at 4°C, 1000 uM) stood at 5; in assay [2] (Co-treatment at 37°C, 1 uM), 79; in assay [2] (Co-treatment at 37°C, 5 uM), 60; in assay [2] (Co-treatment at 37°C, 10 uM), 43; in assay [2] (Co-treatment at 37°C, 20 uM), 32; in assay [2] (Co-treatment at 37°C, 50 uM) it was 17.5. Moreover, the Peptide inhibition was determined as 6.5 in assay [2] (Co-treatment at 37°C, 150 uM); 9 in assay [2] (Co-treatment at 37°C, 1000 uM); 64 in assay [2] (Virus Pre-treatment at 37°C, 1 uM); 52 in assay [2] (Virus Pre-treatment at 37°C, 5 uM); 33 in assay [2] (Virus Pre-treatment at 37°C, 10 uM); 31 in assay [2] (Virus Pre-treatment at 37°C, 20 uM). Besides, the Peptide inhibition in assay [2] (Virus Pre-treatment at 37°C, 50 uM) amounted to 20; in assay [2] (Virus Pre-treatment at 37°C, 150 uM), 8.5; in assay [2] (Virus Pre-treatment at 37°C, 1000 uM) it was 10. In assay [2] (antiviral activity against HSV-1 on Vero cells), this compound displayed a half-maximal inhibitory concentration (IC50) of 10 µM. Besides, the antibacterial effect result in assay [3], in assay [4] and in assay [5] was “strong antibacterial effect” throughout. For the same compound, in assay [6], the “antiviral activity of oxidized versus reduced form” value is given as “the same antiviral activity”.

In the case of “hBD1: human β-defensin 1, wild-type reference peptide (DHYNCVSSGGQCLYSACPIFTKIQGTCYRGKAKCCK; ends and bridges not checked; cysteine pairing not given here; UniProt P60022 33-68, looked up)”, the antibacterial effect entry in assay [3], in assay [4] and in assay [5] was “strong antibacterial effect” in each case.
